Laboratory results from PubChem BioAssay AID1919014 (Molecular Pharmacology Branch, DTP, NCI, 2023).
Several values for one entry are separate records, joined by “and”; a condition that tells them apart may be missing. Equal values may be shown once. One block for each molecule: values may come before it.

Test system: NCI-H1341 complex spheroids, percent test/control
Test: Anticancer human tumor NCI-H1341 cell line growth inhibition [AhR];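 note: spheroids exposed to agents for seven days before readout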
Details: for viability, T/C: stronger effect = lower value
Source text: Multicellular complex tumor spheroid response to aryl hydrocarbon receptor antagonists in combination with a variety of drugs and investigational agents in selected tumor cell lines
The current study was undertaken to assess response to aryl hydrocarbon receptor antagonists in combination with standard-of-care drugs and investigational agents in solid tumor complex spheroid models. Complex spheroids include a stromal component modeled by human endothelial cells (HUVEC) and fibroblasts modeled by human mesenchymal stem cells (MSCs). The concentration ranges selected for each drug and investigational agent were based upon clinically achievable concentrations if the clinical Cmax of the agent was known.
Compounds. The drugs and investigational agents: BAY 2416964 (NSC825713), GNF351 (NSC835774), CH-223191 (NSC835775), CPI-455 (NSC825282), aza-TdCyd (NSC777586), decitabine (NSC127716), belinostat (NSC758774), entinostat (NSC756642), pevonedistat (NSC761192), tazemetostat (NSC777109), talazoparib (NSC765396), olaparib (NSC753686), selinexor (NSC780203), nedisertib (M3814, NSC802822), bortezomib (NSC756655), venetoclax (NSC766270), doxorubicin (NSC123127), elimusertib (BAY189344, NSC800525), ceralasertib (AZD6738, NSC777638), TAK-243 (NSC785004), alisertib (NSC759677), etoposide (NSC141540), topotecan (NSC609699), eribulin (NSC707389), gemcitabine (NSC613327), carboplatin (NSC241240), cisplatin (NSC119875), and SN-38 (NSC673596) were obtained from the National Cancer Institute (NCI) Developmental Therapeutics Program Chemical Repository (32). The FDA-approved anticancer drug set is available from the Developmental Therapeutics Program at https://dtp.cancer.gov/organization/dscb/obtaining/available plates.htm. […] The stock solutions were prepared in dimethyl sulfoxide (DMSO, Sigma-Aldrich, St. Louis, MO, cat. D2650), except for the platinum compounds which were prepared in saline (Quality Biological, Gaithersburg, MD, cat. 114-055-101), at 800-fold the tested concentration and stored at -70 degrees C prior to their use. All drugs and investigational agents were tested over a range starting from a high concentration at or near the clinical Cmax and decreasing in half-log increments. If the clinical Cmax for an agent had not been determined, the highest concentration tested was 10 microM (Table 1).
Cell Culture. All cells were maintained in an incubator at 37 degrees C and 5% CO2 with 95% humidity. The PDC lines were cultured according to standard operating procedures established by the NCI PDMR (https://pdmr.cancer.gov). Briefly, all PDCs were thawed and cultured in Matrigel-coated flasks prepared with a working solution of 1X Ham's F-12 nutrient mix, without supplementation (Invitrogen, Waltham, MA, cat. 11765054), 100 U/mL penicillin-streptomycin (Invitrogen, cat. 15140122), and 2.5% Matrigel (Corning Inc., Corning, NY, cat. 354248) for the first three passages. All PDCs were cultured in complete DMEM/F-12 media containing advanced DMEM/F-12 (Invitrogen, cat. 12634028), 4.9% defined fetal bovine serum, heat inactivated (HyClone Laboratories Inc., Logan, UT, cat. SH30070.03HI), 389 ng/mL hydrocortisone (Sigma-Aldrich, cat. H4001), 9.7 ng/mL human EGF recombinant protein (Invitrogen, cat. PHG0313), 23.4 microg/mL adenine (Sigma-Aldrich, cat. A2786), 97.3 U/mL penicillin-streptomycin (Invitrogen, cat. 15140122), 1.9 mM L-glutamine (Invitrogen, cat. 25030081), and 9.7 microM Y-27632 dihydrochloride (Tocris Bioscience, Bristol, United Kingdom, cat. 1254). The PDCs were cultured in complete DMEM/F12 media without 10 microM Y-27632 dihydrochloride for at least two passages prior to the screen. The established cell lines NCI-H1341 and […] were cultured in DMEM/F-12, HEPES (Invitrogen, cat. 11330032), 5% defined fetal bovine serum (HyClone Laboratories Inc., cat. SH30070.03), ITS premix universal culture supplement [insulin (5 microg/mL), transferrin (5 microg/mL), and selenious acid (5 ng/mL)] […]

[1] = curve of first compound, second compound 0.1 µM
[2] = curve of first compound, second compound 0.316 µM
[3] = curve of first compound, second compound 1 µM
[4] = curve of first compound, second compound 3.16 µM
[5] = curve of first compound, second compound 10 µM
[6] = second compound 0.1 µM, first compound 0.00949 µM
[7] = second compound 0.1 µM, first compound 0.03 µM
[8] = second compound 0.1 µM, first compound 0.0949 µM
[9] = second compound 0.1 µM, first compound 0.3 µM
[10] = second compound 0.1 µM, first compound 0.949 µM
[11] = second compound 0.1 µM, first compound 3 µM
[12] = second compound 0.316 µM, first compound 0.00949 µM
[13] = second compound 0.316 µM, first compound 0.03 µM
[14] = second compound 0.316 µM, first compound 0.0949 µM
[15] = second compound 0.316 µM, first compound 0.3 µM
[16] = second compound 0.316 µM, first compound 0.949 µM
[17] = second compound 0.316 µM, first compound 3 µM
[18] = second compound 1 µM, first compound 0.00949 µM
[19] = second compound 1 µM, first compound 0.03 µM
[20] = second compound 1 µM, first compound 0.0949 µM
[21] = second compound 1 µM, first compound 0.3 µM
[22] = second compound 1 µM, first compound 0.949 µM
[23] = second compound 1 µM, first compound 3 µM
[24] = second compound 3.16 µM, first compound 0.00949 µM
[25] = second compound 3.16 µM, first compound 0.03 µM
[26] = second compound 3.16 µM, first compound 0.0949 µM
[27] = second compound 3.16 µM, first compound 0.3 µM
[28] = second compound 3.16 µM, first compound 0.949 µM
[29] = second compound 3.16 µM, first compound 3 µM
[30] = second compound 10 µM, first compound 0.00949 µM
[31] = second compound 10 µM, first compound 0.03 µM
[32] = second compound 10 µM, first compound 0.0949 µM
[33] = second compound 10 µM, first compound 0.3 µM
[34] = second compound 10 µM, first compound 0.949 µM
[35] = second compound 10 µM, first compound 3 µM

IC50 [1]: < 31.6 nM
IC50 [2]: < 31.6 nM
IC50 [3]: < 31.6 nM
IC50 [4]: < 31.6 nM
IC50 [5]: < 31.6 nM
Compound: COc1cccc2c1C(=O)c1c(O)c3c(c(O)c1C2=O)CC(O)(C(=O)CO)CC3OC1CC(N)C(O)C(C)O1 (centres undefined) + Cc1cncc(-c2nc(NCCc3c[nH]c4ccccc34)c3ncn(C(C)C)c3n2)c1
viability, T/C (second compound 0.1 µM, first compound 0.0316 µM): 51%
viability, T/C (second compound 0.1 µM, first compound 0.1 µM): 43%
viability, T/C (second compound 0.1 µM, first compound 0.316 µM): 33.4%
viability, T/C (second compound 0.1 µM, first compound 1 µM): 16%
viability, T/C (second compound 0.1 µM, first compound 3.16 µM): 0.94%
viability, T/C (second compound 0.1 µM, first compound 10 µM): 5.91%
viability, T/C (second compound 0.316 µM, first compound 0.0316 µM): 43.4%
viability, T/C (second compound 0.316 µM, first compound 0.1 µM): 39.2%
viability, T/C (second compound 0.316 µM, first compound 0.316 µM): 34.8%
viability, T/C (second compound 0.316 µM, first compound 1 µM): 13%
viability, T/C (second compound 0.316 µM, first compound 3.16 µM): 0.92%
viability, T/C (second compound 0.316 µM, first compound 10 µM): 4.49%
viability, T/C (second compound 1 µM, first compound 0.0316 µM): 39.5%
viability, T/C (second compound 1 µM, first compound 0.1 µM): 37.5%
viability, T/C (second compound 1 µM, first compound 0.316 µM): 28.9%
viability, T/C (second compound 1 µM, first compound 1 µM): 10.9%
viability, T/C (second compound 1 µM, first compound 3.16 µM): 1.66%
viability, T/C (second compound 1 µM, first compound 10 µM): 4.68%
viability, T/C (second compound 3.16 µM, first compound 0.0316 µM): 38.9%
viability, T/C (second compound 3.16 µM, first compound 0.1 µM): 35%
viability, T/C (second compound 3.16 µM, first compound 0.316 µM): 27.1%
viability, T/C (second compound 3.16 µM, first compound 1 µM): 5.93%
viability, T/C (second compound 3.16 µM, first compound 3.16 µM): 2.35%
viability, T/C (second compound 3.16 µM, first compound 10 µM): 6.56%
viability, T/C (second compound 10 µM, first compound 0.0316 µM): 16.8%
viability, T/C (second compound 10 µM, first compound 0.1 µM): 16.6%
viability, T/C (second compound 10 µM, first compound 0.316 µM): 14.3%
viability, T/C (second compound 10 µM, first compound 1 µM): 2.4%
viability, T/C (second compound 10 µM, first compound 3.16 µM): 6.71%
viability, T/C (second compound 10 µM, first compound 10 µM): 5.96%

IC50 (curve of compound): < 31.6 nM
Compound: COc1cc(Nc2ncc3c(n2)-c2ccc(Cl)cc2C(c2c(F)cccc2OC)=NC3)ccc1C(=O)O
viability, T/C (compound 0.0316 µM): 33% and 48.4% and 43.1%
viability, T/C (compound 0.1 µM): 43.8% and 51.7% and 43%
viability, T/C (compound 0.316 µM): 37% and 43.2% and 50.4%
viability, T/C (compound 1 µM): 29.6% and 37.5% and 36.1%
viability, T/C (compound 3.16 µM): 27.7% and 28% and 29.3%
viability, T/C (compound 10 µM): 22.2% and 26.8% and 26.4%

IC50 [1]: 47.3 nM
IC50 [2]: 38.7 nM
IC50 [3]: 53.4 nM
IC50 [4]: 39.2 nM
IC50 [5]: 32.2 nM
Compound: O=C(C=Cn1cnc(-c2cc(C(F)(F)F)cc(C(F)(F)F)c2)n1)NNc1cnccn1 + CC(CO)NC(=O)c1cc(-c2ccc(Cl)cc2)nn(-c2cnn(C)c2)c1=O
viability, T/C [6]: 70.1%
viability, T/C [7]: 66%
viability, T/C [8]: 25.8%
viability, T/C [9]: 8.14%
viability, T/C [10]: 7.31%
viability, T/C [11]: 3.24%
viability, T/C [12]: 81.5%
viability, T/C [13]: 56.4%
viability, T/C [14]: 26.9%
viability, T/C [15]: 8.82%
viability, T/C [16]: 4.72%
viability, T/C [17]: 3.56%
viability, T/C [18]: 72.9%
viability, T/C [19]: 76.5%
viability, T/C [20]: 25.3%
viability, T/C [21]: 7.32%
viability, T/C [22]: 5.36%
viability, T/C [23]: 3.2%
viability, T/C [24]: 70.9%
viability, T/C [25]: 56.6%
viability, T/C [26]: 27.3%
viability, T/C [27]: 7.55%
viability, T/C [28]: 4.07%
viability, T/C [29]: 4.94%
viability, T/C [30]: 62.8%
viability, T/C [31]: 51%
viability, T/C [32]: 27.2%
viability, T/C [33]: 8.24%
viability, T/C [34]: 5.11%
viability, T/C [35]: 4.13%

IC50 (curve of compound): < 31.6 nM
Compound: Nc1ccn(C2OC(CO)C(O)C2(F)F)c(=O)n1 (centres undefined)
viability, T/C (compound 0.0316 µM): 27.5% and 32.2% and 32.9%
viability, T/C (compound 0.1 µM): 26.6% and 28.1% and 35.2%
viability, T/C (compound 0.316 µM): 24.2% and 25.8% and 36.1%
viability, T/C (compound 1 µM): 24.8% and 27.9% and 31.6%
viability, T/C (compound 3.16 µM): 23.1% and 24.4% and 33.5%
viability, T/C (compound 10 µM): 21.6% and 21.2% and 32.3%

IC50 [1]: > 3000 nM
IC50 [2]: > 3000 nM
IC50 [3]: > 3000 nM
IC50 [4]: > 3000 nM
IC50 [5]: > 3000 nM
Compound: CCN(c1cc(-c2ccc(CN3CCOCC3)cc2)cc(C(=O)NCc2c(C)cc(C)[nH]c2=O)c1C)C1CCOCC1 + CC(CO)NC(=O)c1cc(-c2ccc(Cl)cc2)nn(-c2cnn(C)c2)c1=O
viability, T/C [6]: 89.1%
viability, T/C [7]: 72.4%
viability, T/C [8]: 84%
viability, T/C [9]: 68.1%
viability, T/C [10]: 75.2%
viability, T/C [11]: 57.6%
viability, T/C [12]: 81.9%
viability, T/C [13]: 77%
viability, T/C [14]: 77.9%
viability, T/C [15]: 65.8%
viability, T/C [16]: 65.7%
viability, T/C [17]: 59.7%
viability, T/C [18]: 91.7%
viability, T/C [19]: 73.6%
viability, T/C [20]: 78%
viability, T/C [21]: 63%
viability, T/C [22]: 63.1%
viability, T/C [23]: 62%
viability, T/C [24]: 84.1%
viability, T/C [25]: 82.5%
viability, T/C [26]: 74.9%
viability, T/C [27]: 71.4%
viability, T/C [28]: 61.9%
viability, T/C [29]: 62.4%
viability, T/C [30]: 67.5%
viability, T/C [31]: 79.2%
viability, T/C [32]: 73.3%
viability, T/C [33]: 70.4%
viability, T/C [34]: 65.7%
viability, T/C [35]: 57.4%
